Reference: patent US12285012B2, “Compositions comprising pyridine carboxylate herbicides with acetolactate synthase (ALS) inhibitor herbicides” (Corteva Agriscience LLC, priority 2018, dated 2025)
Like-named read-outs stand apart in the source and are kept apart here.

Tests used:
[1] = system: Canadian thistle (CIRAR, Cirsium arvense); assay: Greenhouse postemergence herbicidal effect; assay type: in vivo; details: for Obs % visual injury: CIRAR
Experimental: (§1) The plants were grown for 7-36 days (d) in a greenhouse with an approximate 14-hour (h) photo-period which was maintained at about 23° C. during the day and 22° C. during the night. Nutrients and water were added on a regular basis and supplemental lighting was provided with overhead metal halide 1000-Watt lamps as necessary. The plants were employed for testing when they reached the second or third true leaf stage.
(§2) The emulsifiable concentrates also included a safener, cloquintocet-mexyl, at 120 grams active ingredient per liter (g ai/L), unless otherwise noted below.
(§3) Control plants were sprayed in the same manner with the solvent blank. All pyridine carboxylate herbicide (component a) application rates are given as “g ae/ha” and all ALS inhibitor (component b) application rates are given as “g ai/ha.”
(§4) The treated plants and control plants were placed in a greenhouse as described above and watered by sub-irrigation to prevent wash-off of the test compounds. After 20-22 d, the condition of the test plants as compared with that of the control plants was determined visually and scored on a scale of 0 to 100 percent where 0 corresponds to no injury and 100 corresponds to complete kill.

[2] = system: wild pansy (VIOTR, Viola tricolor); assay: Greenhouse postemergence herbicidal effect; assay type: in vivo
Experimental: as §1, §2, §3, §4

[3] = system: kochia (KCHSC, Kochia scoparia); assay: Greenhouse postemergence herbicidal effect; assay type: in vivo; details: for Obs % visual injury: KCHSC
Experimental: (§5) Seeds of the desired test plant species were planted in a 90:10% v/v (volume/volume) mixture of PRO-MIX® BX (Premier Tech Horticulture, Quakertown, PA, USA) and PROFILE® GREENS GRADE™ (Profile Products LLC, Buffalo Grove, IL, USA) planting mixture, which typically has a pH of 5.2 to 6.2 and an organic matter content of at least 50 percent, in plastic pots with a surface area of 103.2 square centimeters (cm^2). […] The plants were grown for 7-36 days (d) in a greenhouse with an approximate 14-hour (h) photo-period which was maintained at about 23° C. during the day and 22° C. during the night. Nutrients and water were added on a regular basis and supplemental lighting was provided with overhead metal halide 1000-Watt lamps as necessary. The plants were employed for testing when they reached the second or third true leaf stage.
(§6) Emulsifiable concentrates of each of each pyridine carboxylate herbicide (Compound A or Compound B) were prepared at 100 grams acid equivalent per liter (g ae/L). The emulsifiable concentrates also included a safener, cloquintocet-mexyl, at 120 grams active ingredient per liter (g ai/L), unless otherwise noted below. An aliquot of each emulsifiable concentrate was placed in a 25 mL glass vial and diluted with an aqueous mixture of 1.25% (v/v) ACTIROB® B esterified rapeseed oil (Bayer Crop Science, Research Triangle Park, NC, USA) or MSO® Concentrate with LECI-TECH® methylated soybean oil (Loveland Products, Loveland, CO, USA) to obtain concentrated stock solutions at the highest application rate for each herbicide, based upon a 12 milliliter (mL) application volume at a rate of 187 liters per hectare (L/ha). The concentrated stock solutions were further diluted with an aqueous mixture of 1.25% v/v ACTIROB® B or MSO® Concentrate with LECI-TECH® to obtain stock solutions at reduced application rates for each herbicide. Spray solutions of the herbicide combinations (Compound A or Compound B plus ALS herbicide) were prepared by adding weighed amounts or aliquots of the ALS herbicides to the stock solutions of Compound A or Compound B to form 12-mL spray solutions in two- or three-way combinations.
(§7) The spray solutions were applied to the plant material with an overhead Mandel track sprayer equipped with 8002E nozzles calibrated to deliver 187 L/ha over an application area of 0.503 square meters (m^2) at a spray height of 18 inches (43 centimeters (cm)) above the average plant canopy. Control plants were sprayed in the same manner with the solvent blank. All pyridine carboxylate herbicide (component a) application rates are given as “g ae/ha” and all ALS inhibitor (component b) application rates are given as “g ai/ha.”
as §4

spring wheat (TRZAS) = assay type: in vivo, Triticum aestivum; details: for Obs % visual injury: TRZAS
Experimental: as §1, §2, §3, §4

spring barley (HORVS) = assay type: in vivo, Hordeum vulgare; details: for Obs % visual injury: HORVS
Experimental: as §1, §2, §3, §4

[4] = system: wild chamomile (MATCH, Matricaria chamomilla); assay: Greenhouse postemergence herbicidal effect; assay type: in vivo
Experimental: as §1, §2, §3, §4

[5] = system: spring rape (BRSNN, Brassica napus); assay: Greenhouse postemergence herbicidal effect; assay type: in vivo; details: 30 g/ha
Experimental: as §1, §2, §3, §4

[6] = system: Russian thistle (SASKR, Salsola kali); assay: Greenhouse postemergence herbicidal effect; assay type: in vivo
Experimental: as §1, §2, §3, §4

[7] = system: wild mustard (SINAR, Sinapis arvensis); assay: Greenhouse postemergence herbicidal effect; assay type: in vivo
Experimental: as §1, §2, §3, §4

[8] = system: wild buckwheat (POLCO, Polygonum convolvulus); assay: Greenhouse postemergence herbicidal effect; assay type: in vivo; details: for Obs % visual injury: POLCO
Experimental: as §1, §2, §3, §4

[9] = system: winter rape (BRSNW, Brassica napus); assay: Greenhouse postemergence herbicidal effect; assay type: in vivo
Experimental: as §1, §2, §3, §4

[10] = system: pigweed (AMARE, Amaranthus retroflexus); assay: Greenhouse postemergence herbicidal effect; assay type: in vivo; details: for Obs % visual injury: AMARE
Experimental: as §1, §2, §3, §4

[11] = system: common lambsquarters (CHEAL, Chenopodium album L.); assay: Greenhouse postemergence herbicidal effect; assay type: in vivo; details: for Obs % visual injury: CHEAL
Experimental: as §5, §6, §7, §4

[12] = system: broad-leaf dock (RUMOB, Rumex obtusifolius); assay: Greenhouse postemergence herbicidal effect; assay type: in vivo; details: RUMOB; Pyriminobac methyl 30 g/ha
From the text: (§8) Seeds of the desired test plant species were planted in a 90:10% v/v (volume/volume) mixture of PRO-MIX® BX (Premier Tech Horticulture, Quakertown, PA, USA) and PROFILE® GREENS GRADE™ (Profile Products LLC, Buffalo Grove, IL, USA) planting mixture, which typically has a pH of 5.2 to 6.2 and an organic matter content of at least 50 percent, in plastic pots with a surface area of 103.2 square centimeters (cm^2). In some aspects, to ensure good germination and healthy plants, a fungicide treatment and/or other chemical or physical treatment was applied. The plants were grown for 7-36 days (d) in a greenhouse with an approximate 14-hour (h) photo-period which was maintained at about 23° C. during the day and 22° C. during the night. Nutrients and water were added on a regular basis and supplemental lighting was provided with overhead metal halide 1000-Watt lamps as necessary. The plants were employed for testing when they reached the second or third true leaf stage.
as §6, §7, §4

[13] = system: large crabgrass (DIGSA, Digitaria sanguinalis); assay: Greenhouse postemergence herbicidal effect; assay type: in vivo; details: DIGSA; Pyriminobac methyl 30 g/ha
From the text: as §8, §6, §7, §4

[14] = system: chickweed (STEME, Stellaria media); assay: Greenhouse postemergence herbicidal effect; assay type: in vivo; details: STEME; Pyriminobac methyl 30 g/ha
Experimental: as §1, §2, §3, §4

CC(C)C1(C)N=C(c2ncccc2C(=O)O)NC1=O (stereo not shown) [Imazapyr, imazapyr]
pest or weed control at 140 g/ha ([1]; Cirsium arvense, post-emergence, 140 g/ha, read-out: % visual injury, Obs): 80% | % visual injury, Obs ([2]; 140 g/ha): 63% | pest or weed control at 140 g/ha ([3]; Bassia scoparia, post-emergence, 140 g/ha, read-out: % visual injury, Obs): 54%

COc1cc(OC)nc(Sc2cccc3c2C(=O)OC3C)n1 (stereo not shown) [Pyriftalid, pyriftalid]
% visual injury, Obs (spring wheat (TRZAS); 30 g/ha): 0% | % visual injury, Obs (spring barley (HORVS); 30 g/ha): 5% | % visual injury, Obs ([4]; 30 g/ha): 0% | % visual injury, Obs [5]: 18% | % visual injury, Obs ([6]; 30 g/ha): 0% | % visual injury, Obs ([7]; 30 g/ha): 23% | pest or weed control at 30 g/ha ([3]; Bassia scoparia, post-emergence, 30 g/ha, read-out: % visual injury, Obs): 0%

COc1nn(C(=O)NS(=O)(=O)c2c(C(=O)O)csc2C)c(=O)n1C [Thiencarbazone, thiencarbazone]
% visual injury (spring wheat (TRZAS); in vivo): 0% | % visual injury Obs (spring wheat (TRZAS); in vivo): 0% | % visual injury (spring barley (HORVS); in vivo): 0% | % visual injury Obs (spring barley (HORVS); in vivo): 8% | % visual injury ([4]; Thiencarbazone 5 g/ha): 55% | % visual injury Obs ([4]; Thiencarbazone 10 g/ha): 80% | % visual injury ([8]; Thiencarbazone 5 g/ha): 89% | % visual injury Obs ([8]; Thiencarbazone 10 g/ha): 95% | % visual injury ([9]; Thiencarbazone 5 g/ha): 97% | % visual injury Obs ([9]; Thiencarbazone 10 g/ha): 98% | % visual injury ([1]; Thiencarbazone 5 g/ha): 10% | % visual injury Obs ([1]; Thiencarbazone 10 g/ha): 45% | % visual injury ([10]; Thiencarbazone 5 g/ha): 83% | % visual injury Obs ([10]; Thiencarbazone 10 g/ha): 98% | % visual injury ([6]; Thiencarbazone 5 g/ha): 53% | % visual injury ([7]; Thiencarbazone 5 g/ha): 95% | % visual injury Obs ([7]; Thiencarbazone 10 g/ha): 90% | % visual injury ([3]; Thiencarbazone 5 g/ha): 25% | % visual injury Obs ([3]; Thiencarbazone 10 g/ha): 45% | % visual injury ([11]; Thiencarbazone 5 g/ha): 60% | % visual injury Obs ([11]; Thiencarbazone 10 g/ha): 83%

imazamethabenz
% visual injury (spring wheat (TRZAS); Imazamethabenz 100 g/ha): 0% | Obs % visual injury (spring wheat (TRZAS); Imazamethabenz 100 g/ha): 0% | Obs % visual injury (spring wheat (TRZAS); Imazamethabenz 200 g/ha): 0% | Obs % visual injury (spring barley (HORVS); Imazamethabenz 100 g/ha): 0% | Obs % visual injury (spring barley (HORVS); Imazamethabenz 200 g/ha): 0% | % visual injury (spring barley (HORVS); Imazamethabenz 100 g/ha): 0% | % visual injury ([4]; Imazamethabenz 100 g/ha): 0% | Obs % visual injury ([4]; MATCH, Imazamethabenz 200 g/ha): 5% | % visual injury ([8]; Imazamethabenz 100 g/ha): 70% | Obs % visual injury ([8]; Imazamethabenz 200 g/ha): 88% | Obs % visual injury ([9]; BRSNW, Imazamethabenz 200 g/ha): 53% | % visual injury ([9]; Imazamethabenz 100 g/ha): 35% | Obs % visual injury ([1]; Imazamethabenz 100 g/ha): 5% | Obs % visual injury ([1]; Imazamethabenz 200 g/ha): 5% | % visual injury ([1]; Imazamethabenz 100 g/ha): 0% | Obs % visual injury ([10]; Imazamethabenz 200 g/ha): 5% | % visual injury ([10]; Imazamethabenz 100 g/ha): 0% | % visual injury ([6]; Imazamethabenz 100 g/ha): 0% | Obs % visual injury ([6]; SASKR, Imazamethabenz 100 g/ha): 13% | % visual injury ([7]; Imazamethabenz 100 g/ha): 68% | Obs % visual injury ([7]; SINAR, Imazamethabenz 200 g/ha): 75% | % visual injury ([3]; Imazamethabenz 100 g/ha): 0% | Obs % visual injury ([3]; Imazamethabenz 200 g/ha): 0% | Obs % visual injury ([11]; Imazamethabenz 100 g/ha): 0% | Obs % visual injury ([11]; Imazamethabenz 200 g/ha): 0% | % visual injury ([11]; Imazamethabenz 100 g/ha): 0%

pyriminobac
Obs % visual injury (spring wheat (TRZAS); Pyriminobac methyl 30 g/ha): 0% | Obs % visual injury [12]: 65% | Obs % visual injury [13]: 0% | Obs % visual injury [14]: 15% | Obs % visual injury ([8]; Pyriminobac methyl 30 g/ha): 80% | Obs % visual injury ([1]; Pyriminobac methyl 30 g/ha): 8% | Obs % visual injury ([2]; VIOTR, Pyriminobac methyl 30 g/ha): 5% | Obs % visual injury ([10]; Pyriminobac methyl 30 g/ha): 93% | Obs % visual injury ([3]; Pyriminobac methyl 30 g/ha): 33% | Obs % visual injury ([11]; Pyriminobac methyl 30 g/ha): 20%
